This note sets out measurements from US11066455B2, “Tmem100 peptides and variants thereof and their use in treating or preventing diseases or conditions” (The Johns Hopkins University, priority 2014, dated 2021).

“Also recorded” adds a separate entry of the source. Like-named read-outs stand apart in the source and are kept apart here. Peptide text beside a SMILES is read from it. * marks the point of attachment. Myristoyl = CCCCCCCCCCCCCC(=O)*

Test [1] has as its target T1, TRPA1 (UniProt O75762).
T1 construct: other: cells expressing A1+V1; other: cells expressing A1+V1+Tmem100
Nature of the test: Calcium imaging of HEK293T cells expressing TRPA1 and TRPV1 (MO or CA). The format is cell-based. The protocol:
(§1) Calcium imaging assays were performed as previously described (Liu et al., 2009). Cells were loaded with 2 μM fura 2-acetomethoxy ester (Molecular Probes) for 30 min in the dark at room temperature or for 45 minutes at 37° C. for DRG and cell lines, respectively. After washing, cells were imaged at 340 and 380 nm excitation to detect intracellular free calcium under a fluorescent microscope (Nikon Eclipse TE2000-S) and Lambda 10B shutter (Sutter Instrument). The cells were bathed in calcium imaging buffer (pH 7.45, 130 mM NaCl, 3 mM KCl, 2.5 mM CaCl2, 10 mM HEPES, 10 mM glucose, 1.2 mM NaHCO3, with sucrose to increase osmolarity to 290 mOsm). The reagents and buffers were applied through a gravity perfusion system at a rate of […], including mustard oil (Sigma 377430), cinnamaldehyde (Sigma C80687), menthol (Sigma M2780), and capsaicin (Sigma M2028). Cells with high baseline 340/380 values (>1.5) were excluded for analysis. For DRG neurons, IB4 staining was performed in the chamber with the dilution of 1:200 (Molecular Probes 121412) for 160 seconds before washing off at the end of each test. Images were processed and analyzed with NIS-Elements BR 2.30 software (Nikon). A responsive cell was defined as one that with greater than a 20% increase in the 340/380 ratio above the baseline. Intracellular calibration for calcium was performed as previously described (Akopian et al., 2007). The data was analyzed with the experimenter blinded to the genotypes or constructs transfected.
(§2) DRG from 3 to 4-week old mice were collected in cold DH10 medium (90% DMEM/F-12, 10% FBS, 100 U/ml penicillin, and 100 μg/ml Streptomycin, Gibco) and treated with enzyme solution in HBSS containing collagenase (1.65 mg/mL, Worthington CLS I) and dispase (3.55 mg/mL, GIBCO 17105-041) at 37° C. for 30 minutes. After trituration and centrifugation, cells were resuspended in DH10, plated on glass coverslips coated with poly-D-lysine (0.5 mg/ml, Stoughton, Mass.) and laminin (10 μg/ml, Invitrogen), and cultured overnight in an incubator at 37° C. The neurons were tested within 24 hours. HEK293T, COS-7, and CHO cells were cultured in a medium consisting of 90% DMEM, 10% FBS, 100 U/mL penicillin, and 100 μg/ml Streptomycin. GlutaMAX (Gibco 35050-061) was also added for CHO cells. For calcium imaging, the cells were plated on glass coverslips coated with poly-D-lysine (0.5 mg/ml, Stoughton, Mass.). In the HEK cell studies the denominator is the cells expressing both TRPA1, TRPV1, and the designated constructs (i.e. Tmem100 or Tmem100-3Q mutant). mCherry:TRPV1:Tmem100 was transfected in 1:8:8 ratio into TRPA1 stable cell line (obtained from N. Tigue from GlaxoSmithKline) and used mCherry as the marker for the cells expressing the constructs 18 hours after transfection with Lipofectamine 2000. The transfection efficiency for Tmem100+TRPV1+TRPA1 triple-positive cells is 27±3%. This efficiency was determined by mCherry(+) divided by total number of cells in the bright fields.
(§3) The sequence from the last 28 amino acids of the C-terminus of the Tmem100-3Q mutant protein was synthesized and myristoylated at its N-terminus (myr-[…]-COOH) (SEQ ID NO: 8) by Twentyfirst Century Biochemicals. […] For the calcium imaging assay, the peptides were added to the calcium imaging buffer with a final concentration of 200 nM and incubated for at least […] at room temperature. For the mice behavioral assays, the peptides (5 μL, 2 mM) were injected subcutaneously in the hindpaw at least 30 minutes before testing. For the rat behavior assays, human T100-3Q (h-T100), a palmitoylated cell permeable peptide mutated based on the C terminus of human sequence in Tmem100, was applied. The sequence is Palmitoyl-[…]-COOH (SEQ ID NO: 7).

Test [2] deals with neuropathic mechanical hypersensitivity in SNL rats. It is filed as in vivo, rat.
Excerpt: An modified L5 SNL model was produced as described in previously (He et al., 2014; Shechter et al., 2013). Male Sprague-Dawley rats (200-350 g, Harlan, Indianapolis, Ind.) were anesthetized with 2% isoflurane. The left L5 spinal nerve was ligated with a 6-0 silk suture and cut distally. The muscle layer was closed with 4-0 chromic gut suture and the skin closed with metal clips. For intrathecal catheter implantation, a small slit was cut in the atlanto-occipital membrane of rats, into which a saline-filled piece of PE-10 tubing (6-7 cm) was inserted (He et al., 2014). […] Hypersensitivity to punctuate mechanical stimulation was determined with the up-down method by using a series of von Frey filaments (0.38-15.1 g) applied for 4-6 seconds to the test area on the plantar surface of the hindpaw (Chaplan et al., 1994; He et al., 2014). The PWT was determined according to the formula provided by Dixon (Dixon, 1980). […] HC-030031 was purchased from Tocris Bioscience (Bristol, UK). Both drugs were dissolved in 10% dimethylsulfoxide (DMSO), 5% Tween 80 and 85% sterile saline solution. The final working solution which was injected by intrathecal route contained <1% DMSO. The number of animals used in each study was based on experience with similar studies and power analysis calculations. Animals were randomized to the different treatment groups and blinded the experimenter to drug treatment to reduce selection and observation bias. After the experiments were completed, no data point was excluded. STATISTICA 6.0 software (StatSoft, Inc., Tulsa, Okla.) was used to conduct all statistical analyses. The Tukey honestly significant difference (HSD) post-hoc test was used to compare specific data points. Bonferroni correction was applied for multiple comparisons. Two-tailed tests were performed, and data are expressed as mean±SEM; P<0.05 was considered significant in all tests.
as §3

Test [3] concerns T2, TRPA1.
T2 construct: percentage of cells responsive to CA; other: shortened CPP 2 μM; CA 10 μM; HEK293 TRPA1+TRPV1; vs scrambled; percentage of cells responsive to MO; other: peptide 200 nM pre-treatment; 500 nM MO; HEK293T TRPA1+TRPV1; percentage of cells that respond to 100 nM MO and 10 μM CA; other: HEK293T TRPA1+TRPV1, Tmem100-3Q-transfected vs lacki; reduction in the percentage of cells responding to MO
Kind of test: Calcium imaging of HEK293T cells expressing TRPA1 and TRPV1 (MO or CA). It is filed as cell-based. The protocol:
as §1, §2, §3

In test [4] the test system is MO-induced pain in TRPV1-/- mice. Nature of the test: Mustard oil injection in TRPV1-/- mice. It is filed as in vivo, mouse. Here is the method: (§4) Mice were placed in a transparent plastic box (4.5×5×10 cm) on a metal mesh and acclimatized for 30 minutes prior to testing. Each mouse was tested more than 5 times at a specific force manually, and the threshold was determined by the lowest force needed to elicit responses more than 50% of the time.
Mice were injected intradermally in the hind paw with 6 μL of 0.2% mustard oil (Sigma-Aldrich 377430) with Hamilton needles (80300). The mice were placed in a plexiglass cylinder, and the total time spent licking and flinching was recorded for the first 10 minutes after injection. Thirty and sixty minutes after injection, the mice were assayed with von Frey filaments for mechanical hyperalgesia.
The sequence from the last 28 amino acids of the C-terminus of the Tmem100-3Q mutant protein was synthesized and myristoylated at its N-terminus (myr-[…]-COOH) (SEQ ID NO: 8) by Twentyfirst Century Biochemicals. […] For the calcium imaging assay, the peptides were added to the calcium imaging buffer with a final concentration of 200 nM and incubated for at least […] at room temperature. For the mice behavioral assays, the peptides (5 μL, 2 mM) were injected subcutaneously in the hindpaw at least 30 minutes before testing. For the rat behavior assays, human T100-3Q (h-T100), a palmitoylated cell permeable peptide mutated based on the C terminus of human sequence in Tmem100, was applied. […]

Test [5] concerns paclitaxel (Taxol)-induced mechanical hyperalgesia in wild-type mice. Kind of test: Paclitaxel-induced mechanical hyperalgesia. It is filed as in vivo, mouse. As to conditions: day 7 post paclitaxel; intradermal injection of T100-Mut. Here is the method: as §4
Mice were injected with paclitaxel (Sigma T7191) intraperitoneally at the dose of 6 mg/kg, as previously described (Materazzi et al., 2012). Seven days after paclitaxel injection, the mice were assayed with Von Frey methods for mechanical hyperalgesia, both before and four hours after injection of cell permeable peptides.

Test [6] concerns ongoing neuropathic pain in SNL rats. Nature of the test: Conditioned place preference test for ongoing pain in SNL rats. It is filed as in vivo, rat. The note with it: i.p. An excerpt:
Ongoing, or spontaneous, pain, which is most bothersome to patients, is difficult to treat and difficult to study in animals. The conditioned place preference test has been successfully developed to reveal the presence of non-evoked, ongoing pain and pain relief based on the preference of an animal for the context paired with a pain-relief treatment. The conditioned place preference can also capture the aversive aspects of pain. Strikingly, many studies have shown that the rodent conditioned place preference test accurately reflects the effectiveness of human clinical treatments. Therefore, this test is a powerful approach to investigate the potential effectiveness of new treatments and mechanisms for relief of ongoing pain. Two previous studies have examined the role of TRPA1 in ongoing pain by the conditioned place preference test. […] Because the antagonists used in those studies (HC030031 and Chem5861528) target TRPA1 monomers, it is possible that T100-Mut can inhibit ongoing pain by modulating the TRPA1/V1 complex. This possibility was tested in rodents with SNL-induced ongoing pain using the conditioned place preference test. […] Systemic administration of gabapentin, an analgesic that is known to alleviate neuropathic pain, was used as a positive control (FIG. 16B).

The target in test [7] is TRPA1 (expressed in heterologous cells: CHO, HEK293T). Kind of test: cell-based or functional assay.
TRPA1 (expressed in heterologous cells: CHO, HEK293T), sequence (Q8BLA8 whole entry): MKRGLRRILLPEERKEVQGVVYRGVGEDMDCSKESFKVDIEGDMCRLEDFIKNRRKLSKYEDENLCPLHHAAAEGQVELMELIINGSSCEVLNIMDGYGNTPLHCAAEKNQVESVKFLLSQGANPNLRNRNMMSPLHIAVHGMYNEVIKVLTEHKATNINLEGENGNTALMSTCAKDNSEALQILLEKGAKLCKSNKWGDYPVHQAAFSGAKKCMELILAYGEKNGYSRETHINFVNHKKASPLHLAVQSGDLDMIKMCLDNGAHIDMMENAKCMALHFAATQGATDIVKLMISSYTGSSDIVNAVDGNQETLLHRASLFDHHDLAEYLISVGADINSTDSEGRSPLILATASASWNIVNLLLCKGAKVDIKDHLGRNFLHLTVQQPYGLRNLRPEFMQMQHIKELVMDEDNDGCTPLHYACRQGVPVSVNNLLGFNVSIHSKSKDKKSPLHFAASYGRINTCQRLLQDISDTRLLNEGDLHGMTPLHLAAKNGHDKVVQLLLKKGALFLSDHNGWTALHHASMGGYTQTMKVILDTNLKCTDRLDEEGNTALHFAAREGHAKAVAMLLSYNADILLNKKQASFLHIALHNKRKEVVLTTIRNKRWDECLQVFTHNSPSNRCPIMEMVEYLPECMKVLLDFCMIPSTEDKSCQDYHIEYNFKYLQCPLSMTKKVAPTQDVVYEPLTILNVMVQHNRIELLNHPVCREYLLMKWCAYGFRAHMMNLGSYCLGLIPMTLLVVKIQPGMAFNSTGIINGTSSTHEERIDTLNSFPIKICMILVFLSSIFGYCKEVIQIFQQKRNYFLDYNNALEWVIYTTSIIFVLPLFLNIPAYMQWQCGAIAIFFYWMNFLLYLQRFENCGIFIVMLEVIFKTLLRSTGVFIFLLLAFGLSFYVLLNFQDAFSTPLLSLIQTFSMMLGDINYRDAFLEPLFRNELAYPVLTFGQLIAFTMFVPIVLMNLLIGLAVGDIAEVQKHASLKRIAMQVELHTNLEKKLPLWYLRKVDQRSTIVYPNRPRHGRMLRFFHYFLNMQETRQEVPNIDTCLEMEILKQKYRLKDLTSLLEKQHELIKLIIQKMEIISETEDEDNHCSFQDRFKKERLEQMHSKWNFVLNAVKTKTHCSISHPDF

By EC50 is commonly meant the concentration at which the effect is half-maximal. In the case of `O=CC=Cc1ccccc1` [CA, cinnamaldehyde, reference compound], the concentration giving a half-maximal response (EC50) on TRPA1 [1] (cells expressing A1+V1) turned out to be 57 µM; on TRPA1 [1] (cells expressing A1+V1+Tmem100), 21 µM.

In the case of `CC(C)c1ccc(NC(=O)Cn2cnc3c2c(=O)n(C)c(=O)n3C)cc1` [HC-030031, reference compound], in test [2] (intrathecal 10 μl), the “contralateral PWT after drug injection” value is listed as “did not change significantly”. The “ipsilateral paw withdrawal threshold (PWT) vs pre-drug” value in test [2] (intrathecal 10 μl, h-T100 10-100 μM, HC-030031 10-200 μM, scrambled 100 μM) was “increased”. The EC50 in test [2] (intrathecal, 10 μl, SNL rats, read-out: EC50 for inhibiting pain) worked out at 58.2 µM.

As for `CCCCCCCCCCCCCC(=O)N[C@@H](Cc1c[nH]c2ccccc12)C(=O)N[C@@H](CCCCN)C(=O)N[C@H](C(=O)N[C@@H](CCCNC(=N)N)C(=O)N[C@@H](CCC(N)=O)C(=O)N[C@@H](CCCNC(=N)N)C(=O)N[C@@H](CC(N)=O)C(=O)N[C@@H](CCCCN)C(=O)N[C@@H](CCCCN)C(=O)N[C@H](C(=O)N[C@@H](CCC(N)=O)C(=O)N[C@@H](CCC(N)=O)C(=O)N[C@@H](CCC(N)=O)C(=O)N[C@@H](CCC(=O)O)C(=O)N[C@@H](CO)C(=O)N[C@@H](CCC(N)=O)C(=O)N[C@H](C(=O)N[C@@H](C)C(=O)N[C@@H](CC(C)C)C(=O)N[C@H](C(=O)N[C@H](C(=O)N[C@@H](CC(N)=O)C(=O)N[C@@H](CCC(N)=O)C(=O)N[C@@H](CCCNC(=N)N)C(=O)N[C@@H](CS)C(=O)N[C@@H](CC(C)C)C(=O)N[C@@H](Cc1ccccc1)C(=O)N[C@@H](C)C(=O)O)C(C)C)C(C)C)[C@@H](C)O)C(C)C)C(C)C` [T100-Mut] (Myristoyl-WKVRQRNKKVQQQESQTALVVNQRCLFA-OH), in test [2] (SNL rats, intrathecal), the “efficacy and potency of inhibiting neuropathic pain compared with HC-030031” value is “comparable or better efficacy and potency”. A half-maximal response in test [2] (rat, in vivo) (EC50) required 29.3 µM. The “reduction in the percentage of cells responding to MO” value in the test on TRPA1 [3] (heterologous system, T100-Mut treatment vs scrambled) was determined as 65%. The “percentage of cells responsive to MO” value in the test with TRPA1 [3] (peptide 200 nM pre-treatment, 500 nM MO, HEK293T TRPA1+TRPV1) was found to be 6±2.4%. In addition, in test [4], the “MO-induced acute pain in TRPV1-/- mice” value was “did not perturb; also recorded: no effect” and the “MO-induced mechanical hyperalgesia in TRPV1-/- mice” value is on record as “did not perturb; also recorded: no effect”. The paclitaxel-induced mechanical hyperalgesia entry in test [5] was “attenuated; also recorded: alleviated”.

For the compound `NCC1(CC(=O)O)CCCCC1` [gabapentin, reference compound], the “conditioned place preference: time in gabapentin-paired chamber, SNL rats” value in test [6] (60 mg/kg, saline-paired chamber as comparison) is recorded as “significantly increased”. In addition, in test [6] (gabapentin 60 mg/kg, sham-operated), the “chamber preference in sham-operated rats” value is recorded as “did not induce chamber preference”.

In test [7], “TRPV1 (expressed in heterologous cells: CHO, HEK293T) (receptor)” showed an MO (10 µM)-evoked Ca2+ influx, CHO cells, with Tmem100-3Q co-expressed (1:1:4) of 321 nM; an MO (10 µM)-gated whole-cell current density, CHO cells, with Tmem100-3Q co-expressed (1:1:4) of 39.2 pA/pF; an MO (10 µM)-induced single-channel activity (NPo), CHO cells, with Tmem100-3Q co-expressed (1:1:4) of 0.16; an MO (10 µM)-induced single-channel activity (NPo), CHO cells, with wild-type Tmem100 co-expressed (1:1:4) of 1.05.
